Tests used:
[1] = molecular target: H-2 L^d:Ig (DimerX) protein; assay: SPR kinetics of synthetic peptide binding to immobilized DimerX; parameters: species or system Mouse; details: for Kd: KD = kd/ka from SPR at 25°C, read-out: affinity constant (KD); for association constant (ka) / dissociation constant (kd): SPR, DimerX immobilized on carboxylated sensor chip by EDC/NHS, peptide in PBS, neutral pH, 25°C
Description: Surface Functionalization of Sensor Chip (Steps 1 and 2). The functionalization process was performed in eight steps using running buffer (10 mM HEPES, 3 mM EDTA, 150 mM NaCl, and 0.005% Tween 20, pH 7.4) at a continuous flow rate (Fr): (i) injection of 10 μL of 50 mM HCl (Fr = 10 μL/min); (ii) injection of 100 μL 10 mM CH3COOH (Fr = 50 μL/min); (iii) injection of 150 μL of coupling agents (1 : 1) 400 mM EDC : NHS (Fr = 15 μL/min); (iv) injection of 100 μL 10 mM CH3COOH (Fr = 50 μL/min); (v) injection of 100 μL (0.5 μg) of DimerX H-2 L^d:Ig (Fr = 10 μL/min); (vi) injection of 100 μL 10 mM CH3COOH (Fr = 50 μL/min); (vii) injection of 150 μL 100 mM ethanolamine (Fr = 20 μL/min); and (viii) injection of 200 μL 50 mM HCl (Fr = 50 μL/min).
Complex Formation of H-2 L ^d :Ig/Peptide (Step 3). Binding of peptides to protein DimerX was performed through the injection of 100 μL of each synthetic peptide over the functionalized sensor chip (Fr = 10 μL/min). The peptides (2 mg/mL) were diluted in filtrated PBS, which was also used as the running buffer. The concentration of peptides for binding to the DimerX was determined according to the manufacturer's instructions:(1) Mp=MH·R·Dp/DH, where Mp is micrograms of the peptide, MH is micrograms of H-2 in the reaction, R is molar excess (160 mol) between the peptide and protein H-2, Dp is molecular weight of the peptide, and DH is molecular weight of DimerX (250,000 Da).
Affinity Constants and Gibbs Free Energy. […] The following calculation was used to obtain the KD for interactions that rapidly reach equilibrium:(2) KD=kd/ka. The formation of molecular complex between DimerX and peptides complex was also analyzed to calculate the Gibbs free energy of dissociation. This energy is related to the equilibrium constant (Keq) of the transition state between the product (DimerX/peptide) and its transient state. The values of Keq were calculated using the ka and kd data obtained from the SPR assay at 25°C:(3) ΔG^°=−RTln1/Keq.
The kinetic parameters of DimerX/peptides complexes were assessed, prior to the ex vivo assay with the mouse cells, to ensure that the assayed peptides could stably bind to the H-2 cleft of DimerX proteins. The DimerX proteins were immobilized onto the sensor chip using the EDC/NHS methodology for covalent binding and, thus, we assumed that the α1 and α2 domains of the recombinant H-2 were free to interact with the synthetic peptides in solution. The RU value obtained after DimerX immobilization was taken as reference to define the baseline to measure peptides binding (Figure 1).

[2] = test system: lymph node cells (T lymphocytes) from L. (L.) amazonensis-infected BALB/c mice; assay: SPR interaction of lymph node cells with immobilized DimerX/peptide complexes; type: cell-based; details: for RUs (subtractive dissociation response) 3rd week: 3rd week of infection; for RUs (subtractive dissociation response) 4th week: 4th week of infection; for RUs (subtractive dissociation response) 6th week: 6th week of infection; for RUs (subtractive dissociation response) 12th week: 12th week of infection; for RUs (subtractive dissociation response) 18th week: 18th week of infection; for trend of reactivity of peptide-reactive T lymphocytes along the infection: weeks 1 to 18 of infection, result in words
Description: BALB/c 5–7-week-old female mice (H-2 haplotype^d) were obtained from the animal care facility of Fiocruz (Centro de Criação de Animais de Laboratório (CECAL), Fiocruz). For the experimental infections, each animal was inoculated subcutaneously with 1.0 × 10^5 stationary-phase promastigotes in PBS (50 μL) in the left hind paw. For in vitro and ex vivo assays, cells were isolated from the lesion-draining popliteal lymph nodes of five mice infected with L. (L.) amazonensis. After isolating and counting the viable cells, these were adjusted and resuspended in RPMI medium supplemented with 2% FCS (5.0 × 10^5 cells/mL). All procedures using animals were previously approved by the Animal Ethics Committee of Fiocruz (Comissão de Ética no Uso de Animais (CEUA), Fiocruz; L-0006/07).
Interaction of the Cells with the Complex DimerX/Peptide (Step 4). The reflectance values were expressed as resonance units per second (RU/s). In these assays, the kinetics of association and dissociation between immobilized DimerX/peptide complexes and lymph node cells were determined. These assays were performed with 10^4 cells suspended in PBS in a final volume of 100 μL (Fr = 5 μL/min).
Regeneration of the Sensor Chips (Step 5). The regeneration was performed by the injection of 250 μL of 30 mM HCl (Fr = 50 μL/min) into the system, followed by the injection of 200 μL PBS (Fr = 50 μL/min). After this procedure, only the DimerX molecules were left on the sensor chip surface; thus they were able to form new complexes with different peptides and interact again with cells.
Lymph node cells were injected onto SPR chips covered by immobilized DimerX/peptides complexes (Figure 4). In these experiments, due to the complexity to define the kinetic parameters for whole cells, the RU values for association (RUa) and dissociation (RUd) were used as standards to assess interaction of cells with the complexes. Also, as the stability of RUd signal over time relates to the stability of interaction, it was used as parameter to define the binding of reactive cells.
Furthermore, experimental evidences support the hypothesis that the binding of the cells from infected mice to the immobilized complexes is specific, once the RUd values obtained for these interactions were consistently higher that those observed for the interaction of cells from noninfected mice. The RU values obtained by the subtraction of the nonspecific interaction RU (cells from noninfected animals) from the specific interaction RU (cells from infected mice) were considered as representative of the binding effectiveness (Table 2). These effectiveness RU values allowed observing a different trend of T lymphocytes recognition for each peptide tested throughout the experimental infection timeline (Table 2).

[3] = RUd of cells from infected mice minus RUd of cells from noninfected mice, 10^4 cells in PBS

H-2 L^d:Ig (DimerX) protein, sequence (P01897 25-298 limits assumed): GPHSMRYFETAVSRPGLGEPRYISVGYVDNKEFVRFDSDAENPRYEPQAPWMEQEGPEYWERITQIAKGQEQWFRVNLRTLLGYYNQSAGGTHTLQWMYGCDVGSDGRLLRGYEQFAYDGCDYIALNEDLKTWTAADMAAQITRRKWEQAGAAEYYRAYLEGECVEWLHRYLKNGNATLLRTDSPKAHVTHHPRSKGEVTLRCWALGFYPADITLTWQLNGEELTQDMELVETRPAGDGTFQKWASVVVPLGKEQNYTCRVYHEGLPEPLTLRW
H-2 L^d:Ig (DimerX) protein, sequence (P01887 21-119, further chain): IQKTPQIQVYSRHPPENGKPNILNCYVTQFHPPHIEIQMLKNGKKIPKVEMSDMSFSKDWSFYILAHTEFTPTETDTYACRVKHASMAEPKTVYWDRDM

Sequence	Kd [1] [nM]	association constant (ka) [1]	dissociation constant (kd) [1] [S^−1]	RUs (subtractive dissociation response) 3rd week [2, 3] [RU]	RUs (subtractive dissociation response) 4th week [2, 3] [RU]	RUs (subtractive dissociation response) 6th week [2, 3] [RU]	RUs (subtractive dissociation response) 12th week [2, 3] [RU]	RUs (subtractive dissociation response) 18th week [2, 3] [RU]	trend of reactivity of peptide-reactive T lymphocytes along the infection [2]	RUs (subtractive dissociation response) 1st week ([2]; RUd of cells from infected mice minus RUd of cells from noninfected mice, 10^4 cells in PBS, 1st week of infection) [RU]
EFCLGGGLC [P6.5, synthetic peptide … derived from the COOH-terminal region of cysteine proteinase B of L. (L.) amazonensis]	0.7	6.40 × 10^7 M^−1 S^−1	0.0470	55	185	109	27	85	oscillation in their reactivity	
MVEQVICFD [P1.9, synthetic peptide … derived from the COOH-terminal region of cysteine proteinase B of L. (L.) amazonensis]	74	1.57 × 10^6 M^−1 S^−1	0.1157	181	149	118	120	66	oscillation in their reactivity	115
CLGGGLCL [P6.4, synthetic peptide CLGGGLCL derived from the COOH-terminal region of cysteine proteinase B of L. (L.) amazonensis]	9	1.20 × 10^7 M^−1 S^−1	0.1089	100	127	140		66	oscillation in their reactivity	
VEQVICFD [P1.10, synthetic peptide VEQVICFD derived from the COOH-terminal region of cysteine proteinase B of L. (L.) amazonensis]	1	1.10 × 10^8 M^−1 S^−1	0.1230	227		123	31	44	clear tendency to diminish their reactivity along the infection	
